The nature of series [1]: Dissolution state in ethanol, visually confirmed. It counts as physicochemical. The settings on record: 20 mg crystal in 2 ml ethanol, stationarily placed at 30° C. for 2 hours. The procedure:
20 mg of each of the crystals was weighed, to which 2 ml of ethanol was added, followed by being stored by stationarily placed at 30° C. for 2 hours. The dissolution state was visually confirmed. Accordingly, it is appreciated that the crystal of the present invention is easily dissolved in the polar solvent.

The nature of series [2]: Tablet hardness measurement with hardness meter PTB311. It counts as physicochemical. The conditions noted are these: tablet of 50% by mass lactose and 50% by mass luliconazole, tablet making pressure 1 ton/cm^2, 9 mmφ, average of six samples. The procedure: A tablet was manufactured in accordance with a formulation shown in Table 5 below, and the hardness was measured. PTB311 (produced by Pharma Test GmbH) was used as a hardness meter. As for the tablet making condition, the tablet making was performed at a tablet making pressure of 1 ton/cm^2 by using a pestle and a mortar of 9 mmφ. In Comparative Example, the operation was performed in the same manner as described above by using the crystal (Comparative Example 1) obtained by performing the recrystallization with n-hexane-ethyl acetate.

In series [3] the test system is Trichomonas vaginalis (clinically isolated strain). Put plainly: Direct effect on Trichomonas vaginalis culture, number of individuals counted on a hemocytometer. The settings on record: 5.08 mg solid crystal added to Trichomonas medium F; culture of 3.93×10^5 individuals/mL; cultured at 37° C. for 4 days. It counts as cell-based. The procedure: The direct effect of luliconazole was investigated by using Trichomonas vaginalis (clinically isolated strain). That is, there were prepared a sample in which 5.08 mg of luliconazole of Comparative Example 1 recrystallized from n-hexane and ethyl acetate was added to “Trichomonas medium F” (produced by Fuji Pharma Co., Ltd.), a sample in which 5.08 mg of the crystal of Example 2 was added, and a sample (control) in which 5 μL of water was added. […] of a culture of Trichomonas vaginalis of 3.93×10^5 individuals/mL was added thereto, followed by being cultured at 37° C. for 4 days, and the number of individuals of Trichomonas was counted on a hemocytometer. A significant difference was confirmed at a significance level of not more than 1% among the three samples. Accordingly, it is appreciated that the crystal of the present invention is excellent in the solid-state reactivity.

Where [4] appears, read: listed as crystal of Comp. Ex. 1.

SMILES strings stand for the structures.

In the case of `N#C/C(=C1/SC[C@@H](c2ccc(Cl)cc2Cl)S1)n1ccnc1` [Example 1, luliconazole], the Dissolution state result in series [1] (listed as crystal of Example 1) was “no crystal was found”.
On to `N#C/C(=C1/SC[C@@H](c2ccc(Cl)cc2Cl)S1)n1ccnc1` [Example 2, luliconazole], for which, in series [2] (listed as crystal of Example 2), the Hardness is listed as 73.7 ± 4.2 N. Also, the “number of individuals of Trichomonas (Average)” value in series [3] was 256000. In series [1] (listed as crystal of Example 2), the Dissolution state result is “no crystal was found”.
In series [2] (setting [4]), `N#C/C(=C1/SC[C@@H](c2ccc(Cl)cc2Cl)S1)n1ccnc1` [Comp. Ex. 1, luliconazole, reference compound] registered a Hardness of 29.1 ± 3.0 N. In series [3], the “number of individuals of Trichomonas (Average)” value was 376000. For the same compound, the Dissolution state entry in series [1] (setting [4]) was “crystal was found at bottom”.
